Numbers after ± are expanded uncertainties.
Conditions: Liquid, Capillary tube (Ostwald / Ubbelohde) method

CC(C)C [2-methylpropane]
Conditions	kinematic viscosity [m2/s]
285.13 K	3.1e-07 ± 9.6e-09
290.11 K	2.95e-07 ± 9.1e-09
295.11 K	2.87e-07 ± 8.9e-09
300.41 K	2.72e-07 ± 8.4e-09
303.37 K	2.67e-07 ± 8.3e-09
309.08 K	2.55e-07 ± 7.9e-09
313.12 K	2.46e-07 ± 7.6e-09
315.07 K	2.42e-07 ± 7.5e-09
318.2 K	2.38e-07 ± 7.4e-09
320.12 K	2.35e-07 ± 7.3e-09
323.83 K	2.25e-07 ± 7e-09
326.11 K	2.21e-07 ± 6.9e-09
330.11 K	2.14e-07 ± 6.7e-09
333.14 K	2.07e-07 ± 6.4e-09
335.12 K	2.09e-07 ± 6.5e-09
340.12 K	1.97e-07 ± 6.2e-09
340.15 K	1.97e-07 ± 6.2e-09
345.15 K	1.9e-07 ± 5.9e-09

CCF [fluoroethane]
Conditions	kinematic viscosity [m2/s]
233.15 K	2.93e-07 ± 9.1e-09
238.15 K	2.81e-07 ± 8.7e-09
243.15 K	2.7e-07 ± 8.4e-09
248.11 K	2.58e-07 ± 8e-09
253.15 K	2.46e-07 ± 7.7e-09
258.12 K	2.37e-07 ± 7.4e-09
263.17 K	2.28e-07 ± 7.1e-09
268.16 K	2.17e-07 ± 6.8e-09
273.16 K	2.09e-07 ± 6.5e-09
278.16 K	2.01e-07 ± 6.3e-09
283.15 K	1.92e-07 ± 6e-09
288.13 K	1.85e-07 ± 5.8e-09
293.18 K	1.78e-07 ± 5.6e-09
298.15 K	1.72e-07 ± 5.4e-09
303.12 K	1.66e-07 ± 5.2e-09
308.11 K	1.62e-07 ± 5.1e-09
313.15 K	1.54e-07 ± 4.9e-09
318.15 K	1.51e-07 ± 4.8e-09
320.16 K	1.49e-07 ± 4.7e-09
328.16 K	1.41e-07 ± 4.5e-09
333.15 K	1.37e-07 ± 4.3e-09
338.15 K	1.31e-07 ± 4.2e-09
343.13 K	1.28e-07 ± 4.1e-09
348.15 K	1.23e-07 ± 3.9e-09
353.17 K	1.21e-07 ± 3.8e-09
355.16 K	1.2e-07 ± 3.8e-09
360.16 K	1.16e-07 ± 3.7e-09
366.08 K	1.12e-07 ± 3.6e-09
371.36 K	1.08e-07 ± 3.5e-09

Reference: the NIST ThermoML archive (doi:10.1007/s10765-012-1309-7)
